System: 883617-216-R-J1-PDC tumor spheroids, viability
Test: Anticancer human tumor 883617-216-R-J1-PDC patient-derived bladder carcinoma cell line growth inhibition [PI3K]
Settings: spheroids with HUVEC and MSC; for IC50: curve of first compound; for viability, T/C: stronger effect = lower value; active means viability on the fitted dose curve at most 10% of control; inactive means the rest
From the text: Combinatorial screen of targeted agents with the PI3K inhibitors inavolisib, alpelisib, duvelisib, and copanlisib in multi-cell type tumor spheroids
A high-throughput screen of multi-cell type tumor spheroids was designed to identify active combinations of targeted small molecules and PI3K pathway inhibitors. Complex spheroids include a stromal component modeled by human endothelial cells (HUVEC) and fibroblasts modeled by human mesenchymal stem cells (MSCs). The concentration ranges selected for each drug and investigational agent were based upon clinically achievable concentrations if the clinical Cmax of the agent was known.
Compounds. The drugs and investigational agents: inavolisib (NSC800729), alpelisib (NSC765974), duvelisib (NSC772469), copanlisib (NSC816437), ipatasertib (NSC767898), afuresertib (NSC778305), talazoparib (NSC767125), sapanisertib (NSC764658), selumetinib (NSC741078), tovorafenib (DAY101, NSC766906), vemurafenib (NSC761431), ravoxertinib (NSC781343), sotorasib (NSC818433), MRTX1133 (NSC 836407), abemaciclib (NSC 768073), palbociclib (NSC758247), venetoclax (NSC 766270), SY5609 (NSC837396), enzalutamide (NSC755605), and darolutamide (NSC825331), were obtained from the National Cancer Institute (NCI) Developmental Therapeutics Program Chemical Repository. The FDA-approved anticancer drug set is available from the NCI Developmental Therapeutics Program. […] The stock solutions were prepared in dimethyl sulfoxide (DMSO, Sigma-Aldrich, St. Louis, MO, cat. D2650) at 800-fold the tested concentration and stored at -70 degrees C prior to their use. All drugs and investigational agents were tested over a range starting from a high concentration at or near the clinical Cmax and decreasing in half-log increments. If the clinical Cmax for an agent had not been determined, the highest concentration tested was 10 microM.
Cell Culture. All cells were maintained in an incubator at 37 degrees C and 5% CO2 with 95% humidity. The PDC lines were cultured according to standard operating procedures established by the NCI PDMR (https://pdmr.cancer.gov/sops/default.htm). All PDCs were thawed and cultured in Matrigel-coated flasks prepared with a working solution of 1X Ham's F-12 nutrient mix, without supplementation (Invitrogen, Waltham, MA, cat. 11765054), 100 U/mL penicillin-streptomycin (Invitrogen, cat. 15140122), and 2.5% Matrigel (Corning Inc., Corning, NY, cat. 354248) for the first three passages. The 354836-022-R-J1-PDC, 475296-252-R-J1-PDC, and 997726-040-R-J2-PDC lines were cultured in 6A media, which includes advanced DMEM/F-12 (Thermo Fisher Scientific, cat. 12634028), 10 mM HEPES (Thermo Fisher Scientific, cat. 15630080), 1X GlutaMAX supplement (Thermo Fisher Scientific, cat. 35050061), 0.1 mg/mL primocin (InvivoGen, San Diego, CA, cat. ant-pm-2), 10% defined fetal bovine serum, heat inactivated (HyClone Laboratories Inc., Logan, UT, cat. SH30070.03HI), 50% L-WRN conditioned media (ATCC, cat. CRL-3276), 1.25 mM N-Acetyl-L-cysteine (Sigma-Aldrich, cat. A9165), 10 mM nicotinamide (Sigma-Aldrich, cat. N0636), 1X B-27 supplement (Thermo Fisher Scientific, cat. 17504044), 1X N-2 supplement (Thermo Fisher Scientific, cat. 17502048), and 10 microM Y-27632 dihydrochloride (Tocris Bioscience, Bristol, United Kingdom, cat. 1254). The 624824-186-R-J2-PDC line was cultured in 6C/Colon 1B media, which includes all 6A media components plus 50 ng/mL human EGF recombinant protein (Thermo Fisher Scientific, cat. PHG0311). […]
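Further: spheroids exposed to agents for 7 days before the viability read.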

CCCS(=O)(=O)Nc1ccc(F)c(C(=O)c2c[nH]c3ncc(-c4ccc(Cl)cc4)cc23)c1F + CC(Nc1ccc2c(c1)OCCn1cc(N3C(=O)OCC3C(F)F)nc1-2)C(N)=O
4.71 µM: IC50 (second compound 0.01 µM)
inactive: viability, T/C (second compound 0.00316 µM, first compound 0.0316 µM) 91.2% | viability, T/C (second compound 0.00316 µM, first compound 0.1 µM) 90.9% | viability, T/C (second compound 0.00316 µM, first compound 0.316 µM) 89% | viability, T/C (second compound 0.00316 µM, first compound 1 µM) 100% | viability, T/C (second compound 0.00316 µM, first compound 3.16 µM) 70.2% | viability, T/C (second compound 0.01 µM, first compound 0.0316 µM) 87.3% | viability, T/C (second compound 0.01 µM, first compound 0.1 µM) 90% | viability, T/C (second compound 0.01 µM, first compound 0.316 µM) 89.5% | viability, T/C (second compound 0.01 µM, first compound 1 µM) 93.9% | viability, T/C (second compound 0.01 µM, first compound 3.16 µM) 70.3% | viability, T/C (second compound 0.01 µM, first compound 10 µM) 11.9% | viability, T/C (second compound 0.0316 µM, first compound 0.0316 µM) 68.5% | viability, T/C (second compound 0.0316 µM, first compound 0.1 µM) 64.3% | viability, T/C (second compound 0.0316 µM, first compound 0.316 µM) 64.4% | viability, T/C (second compound 0.0316 µM, first compound 1 µM) 66.8% | viability, T/C (second compound 0.0316 µM, first compound 3.16 µM) 63.7% | viability, T/C (second compound 0.1 µM, first compound 0.0316 µM) 36.1% | viability, T/C (second compound 0.1 µM, first compound 0.1 µM) 42.6% | viability, T/C (second compound 0.1 µM, first compound 0.316 µM) 43.9% | viability, T/C (second compound 0.1 µM, first compound 1 µM) 48.2% | viability, T/C (second compound 0.1 µM, first compound 3.16 µM) 38.7% | viability, T/C (second compound 0.1 µM, first compound 10 µM) 12.2% | viability, T/C (second compound 0.316 µM, first compound 0.0316 µM) 29% | viability, T/C (second compound 0.316 µM, first compound 0.1 µM) 23.8% | viability, T/C (second compound 0.316 µM, first compound 0.316 µM) 28.5% | viability, T/C (second compound 0.316 µM, first compound 1 µM) 28.2% | viability, T/C (second compound 0.316 µM, first compound 3.16 µM) 26.6% | viability, T/C (second compound 0.316 µM, first compound 10 µM) 11% | viability, T/C (second compound 1 µM, first compound 0.0316 µM) 15.2% | viability, T/C (second compound 1 µM, first compound 0.1 µM) 15% | viability, T/C (second compound 1 µM, first compound 0.316 µM) 17% | viability, T/C (second compound 1 µM, first compound 1 µM) 23% | viability, T/C (second compound 1 µM, first compound 3.16 µM) 20.7% | viability, T/C (second compound 1 µM, first compound 10 µM) 8.33%
4.59 µM: IC50 (second compound 0.00316 µM)
< 0.0316 µM: IC50 (second compound 0.1 µM) | IC50 (second compound 0.316 µM) | IC50 (second compound 1 µM)
active: viability, T/C (second compound 0.00316 µM, first compound 10 µM) 8.07% | viability, T/C (second compound 0.0316 µM, first compound 10 µM) 9.98%
4.24 µM: IC50 (second compound 0.0316 µM)

From PubChem BioAssay AID1963973 (Molecular Pharmacology Branch, DTP, NCI, 2024)
